The structures appear in SMILES notation.

The source of these data is patent US20200347039A1, “CRYSTAL FORM OF RENAL OUTER MEDULLARY POTASSIUM CHANNEL INHIBITOR AND PREPARATION METHOD THEREOF” (JIANGSU HENGRUI MEDICINE CO., LTD., priority 2017, published 2020).

The nature of the data set: Pharmacokinetic experiment in SD rats after gavage (LC/MS/MS plasma concentration). It is filed as in vivo. Particulars: for AUClast: SD rat experiment (5 mg/kg).
Setting [1] is: both sexes, rat, plasma, SD rats, po 5.0 mg/kg, suspension in 0.5% CMC-Na.
Where [2] appears, read: SD rats, po 5.0 mg/kg, suspension in 0.5% CMC-Na.

In general, AUC(0-t) refers to the area under the concentration-time curve up to a stated or last time point. Read a high AUC(0-t) as more exposure. A word on the CL/F: it is clearance divided by bioavailability, as obtained after extravascular dosing. Usually half-life stands for how long it takes for the measured level to halve. The low end stands for fast loss, the high end for slow loss. For `COc1cc(C(=O)NC2CCN(C[C@H](O)c3ccc4c(c3C)COC4=O)CC2)ncc1C#N.O=C(O)C(O)C(O)C(=O)O` [Crystal form III, (R)-5-cyano-N-(1-(2-hydroxy-2-(4-methyl-1-carbonyl-1,3-dihydroisobenzofuran-5-yl)ethyl)piperidin-4-yl)-4-methoxypyridinecarboxamide tartrate], the AUClast came to 12618 ng·h/mL. Under setting [1], this molecule showed an AUC(0-t) of 12600 ng·h/mL, a CL/F of 6.7 mL/min/kg and a half-life of 4.21 h. For the setting “both sexes, rat, plasma, SD rats, po 5.0 mg/kg, suspension in 0.5% CMC-Na, read-out: Vz/F_obs”, the Vd/F was determined as 2.45 L/kg.

`COc1cc(C(=O)NC2CCN(C[C@H](O)c3ccc4c(c3C)COC4=O)CC2)ncc1C#N` [free state]: the AUClast was determined as 9283 ng·h/mL. Under setting [2], this molecule showed a T1/2 of 3.62 h and a Vz/F_obs of 3.019 L/kg. Also, the AUC(0-t) under setting [1] was found to be 9280 ng·h/mL.
